As usually defined, the pEC50 is the EC50 on a negative log10 scale, so that one unit is a factor of ten.

pEC50: −log10 of the molar value. Where a name gives a salt, the structure may show the parent alone.

In one assay the test system is HBV rcDNA in HepDE19 cells. Kind of assay: HepDE19 assay with bDNA quantitation of HBV rcDNA. The following applies: HepDE19 cells, 7 day incubation, rcDNA by Quantigene 2.0 bDNA assay; read-out: DE-19 bDNA EC50. The assay is classed as cell-based, hepatitis B virus (HBV). In short, it runs like this: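 HepG2-derived HepDE19 cells, switched to Tet-free medium, were exposed 7 days at 37 °C to compound (8-point ½-log series from 25 μM, 0.5% DMSO). HBV rcDNA measured by bDNA assay with HBV-specific probes; EC50/EC90 by 4-parameter fit. CC50 from CellTiter-Glo ATP on replicate plates after 4 days.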
With `O=C(Nc1ccc(F)c(F)c1)c1cccc2c1OCCC2c1ccncc1` (single isomer, unassigned) [Compound 70, N-(3,4-Difluorophenyl)-4-(pyridin-4-yl)chromane-8-carboxamide], the negative logarithm of the EC50 (pEC50) was 4.64.

The same assay, now with this note: Hepatitis B virus, HepDE19, 168 h, HepDE19 cells, 7 day incubation, rcDNA by Quantigene 2.0 bDNA assay; read-out: DE-19 bDNA EC50.
As for `O=C(Nc1ccc(F)c(F)c1)c1cccc2c1OCCC2c1ncccn1` (centres unmarked) [Compound 71, N-(3,4-difluorophenyl)-4-(pyrimidin-2-yl)chromane-8-carboxamide], the pEC50 was 4.92.
On the same count and under the same terms, with `O=C(N[C@H]1CCOc2c(C(=O)Nc3ccc(F)c(F)c3)c(F)cc(F)c21)OCc1ccccn1` [Compound 124, pyridin-2-ylmethyl (S)-(8-((3,4-difluorophenyl)carbamoyl)-5,7-difluorochroman-4-yl)carbamate] the figure was 4.60; with `O=C(N[C@H]1CCOc2c(C(=O)Nc3ccc(F)c(F)c3)ccc(F)c21)OCc1ccccn1` [Compound 93, Pyridin-2-ylmethyl (S)-(8-((3,4-difluorophenyl)carbamoyl)-5-fluorochroman-4-yl)carbamate], 6.07.
The same measure, in the same setting: as for `COc1cnc(N[C@H]2CCOc3c(C(=O)Nc4ccc(F)c(F)c4)cccc32)nc1` [Compound 55, (S)—N-(3,4-Difluorophenyl)-4-((5-methoxypyrimidin-2-yl)amino)chromane-8-carboxamide], the figure is 5.70; as for `COC(=O)N[C@H]1CCOc2c(C(=O)Nc3ccc(F)c(C(F)(F)F)c3)cccc21` [Compound 44, Methyl (S)-(8-((4-fluoro-3-(trifluoromethyl)phenyl)carbamoyl)chroman-4-yl)carbamate], 5.46; as for `O=C(Nc1ccc(F)c(F)c1)c1cccc2c1OCCC2c1ccccc1` (centres unmarked) [Compound 62, N-(3,4-difluorophenyl)-4-phenylchromane-8-carboxamide], 5.31.
On the same count and under the same terms, with `CC(=O)N1CC(COC(=O)N[C@H]2CCOc3c(C(=O)Nc4ccc(F)c(C)c4)ccc(F)c32)C1` [Compound 161, (1-Acetylazetidin-3-yl)methyl (S)-(5-fluoro-8-((4-fluoro-3-methylphenyl)carbamoyl)chroman-4-yl)carbamate] the figure was 6.07; with `O=C1CC[C@@H](COC(=O)N[C@H]2CCOc3c(C(=O)Nc4ccc(F)c(F)c4)cccc32)N1` [Compound 118, ((S)-5-Oxopyrrolidin-2-yl)methyl ((S)-8-((3,4-difluorophenyl)carbamoyl)chroman-4-yl)carbamate], 5.44; with `Cc1cc(NC(=O)c2ccc(F)c3c2OCC[C@@H]3NC(=O)OCc2cnccn2)ccc1F` [Compound 114, Pyrazin-2-ylmethyl (S)-(5-fluoro-8-((4-fluoro-3-methylphenyl)carbamoyl)chroman-4-yl)carbamate], 6.30.

The assay is the same for the next values; noted with them: Hepatitis B virus, HepDE19, 168 h, read-out: DE-19 bDNA EC50, HepDE19 cells, 7 day incubation, rcDNA by Quantigene 2.0 bDNA assay.
With `Cc1cc(NC(=O)c2ccc(F)c3c2OCC[C@@H]3NC(=O)NCc2ccccn2)ccc1F` [Compound 150, (S)-5-Fluoro-N-(4-fluoro-3-methylphenyl)-4-(3-(pyridin-2-ylmethyl)ureido)chromane-8-carboxamide], the negative-log EC50 (pEC50) is 5.92.
As for `COC(=O)N[C@H]1CCOc2c(C(=O)Nc3ccc(F)c(F)c3)ccc(Cl)c21` [Compound 125, Methyl (S)-(5-chloro-8-((3,4-difluorophenyl)carbamoyl)chroman-4-yl)carbamate], the pEC50 was 5.64.
In the case of `O=C(N[C@H]1CCOc2c(C(=O)Nc3ccc(F)c(Cl)c3)cccc21)OCc1ccccn1` [Compound 51, Pyridin-2-ylmethyl (S)-(8-((3-chloro-4-fluorophenyl)carbamoyl)chroman-4-yl)carbamate hydrochloride], the pEC50 is 5.92.

The assay is the same for the next values; noted with them: read-out: DE-19 bDNA EC50; HepDE19 cells, 7 day incubation, rcDNA by Quantigene 2.0 bDNA assay.
As for `COC(=O)NC1CCN(C)c2c(C(=O)Nc3ccc(F)c(Cl)c3)cccc21` (single isomer, unassigned) [Compound 179, Methyl (8-((3-chloro-4-fluorophenyl)carbamoyl)-1-methyl-1,2,3,4-tetrahydroquinolin-4-yl)carbamate], the pEC50 was 6.03.

The values are drawn from patent US11001564B2, “Substituted chromane-8-carboxamide compounds and analogues thereof, and methods using same” (priority 2016, dated 2021).
